{"source": "patent US10898582B2", "about": "“Bi-functional allosteric protein-drug molecules for targeted therapy” (UNIVERSITY OF UTAH RESEARCH FOUNDATION, priority 2014, dated 2021)", "key": {"[1]": {"tested_on": "MCF-7 breast cancer cells", "assay": "Viability of MCF-7 breast cancer cells, dose-dependent IC50", "assay_type": "cell-based", "description": "To test the therapeutic efficacy of the formulation of PTD-ABD-17-AAG in MCF-7 breast cancer cells, the IC50 value was determined in a dose-dependent manner. The IC50 value is a measure of how effective a drug or therapeutic is and is defined as the concentration required to inhibit a biological process or component of a biological process (e.g., enzyme, cell, cell receptor) in half. The PTD-ABD-17-AAG was prepared as described above (Example 1) and administered to cancer cells. MCF-7 cells were exposed to one of the following formulations: 1) PTD-ABD-17-AAG; 2) 17-AAG; or 3) PTD-ABD."}, "breast cancer cells": {"tested_on": "breast cancer cells", "assay": "Short-term (4 hours) treatment of breast cancer cells, dose-dependent IC50", "assay_type": "cell-based", "settings": "breast cancer cells exposed for 4 hours", "description": "To examine whether the improved cellular uptake of 17-AAG by the PTD-ABD leads to enhanced efficacy of 17-AAG, breast cancer cells were exposed to 17-AAG or the PTD-ABD-17-AAG for 4 hours in a dose-dependent manner. […] Due to the facilitated uptake of 17-AAG bound to the PTD-ABD, the short-term treatment of 17-AAG at low concentrations can increase the cellular concentration of 17-AAG, which results in the enhanced anti-cancer efficacy of 17-AAG. Free 17-AAG was not sufficiently internalized into cells during the short incubation time because of the poor uptake kinetics of free 17-AAG."}, "MCF-7 cells": {"tested_on": "MCF-7 cells", "assay": "Uptake kinetics of FITC-GM into MCF-7 cells", "assay_type": "cell-based", "settings": "2 hours post-treatment", "description": "Finally, 10 μg/ml of GM was sufficient to achieve internalization into 100% of the cell population when delivered by the PTD-ABD protein (FIG. 3c)."}, "microtubules": {"tested_on": "microtubules", "settings": "cited from earlier work"}}, "data": [{"smiles": "C=CCNC1=C2C[C@@H](C)C[C@H](OC)[C@H](O)[C@@H](C)/C=C(\\C)[C@H](OC(N)=O)[C@@H](OC)/C=C\\C=C(/C)C(=O)NC(=CC1=O)C2=O", "note": "[17-AAG, 17-allylamino-17-demethoxygeldanamycin]", "values": [{"measurement": "IC50", "setting": "[1]", "result": 15, "unit": "µM"}, {"measurement": "IC50 value", "setting": "breast cancer cells", "result": "approximately 25 μg/ml"}]}, {"smiles": "COC1=C2C[C@@H](C)C[C@H](OC)[C@H](O)[C@@H](C)/C=C(\\C)[C@H](OC(N)=O)[C@@H](OC)/C=C\\C=C(/C)C(=O)NC(=CC1=O)C2=O", "note": "[GM, Geldanamycin]", "values": [{"measurement": "cell population positive to FITC (GM internalized)", "setting": "MCF-7 cells", "result": 60, "unit": "%"}]}, {"smiles": "CC(=O)O[C@H]1C(=O)[C@@]2(C)[C@H]([C@H](OC(=O)c3ccccc3)[C@]3(O)C[C@H](OC(=O)[C@H](O)[C@@H](NC(=O)c4ccccc4)c4ccccc4)C(C)=C1C3(C)C)[C@]1(OC(C)=O)CO[C@@H]1C[C@@H]2O", "note": "[PTX, paclitaxel]", "values": [{"measurement": "binding affinity Ka to microtubules", "setting": "microtubules", "result": "~6e+07", "unit": "M⁻¹"}]}]}
